In ChEMBL document CHEMBL1201862, “PubChem BioAssay data set” (2004):
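In this assay, cells in 96-well plates receive the compound at five concentrations for 48 hours. Endpoints are linearly interpolated between the surrounding concentrations. Here, GI50 denotes the concentration required for 50% inhibition of growth.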 Activity calls are given as the source filed them. Rule as the data show it: active = GI50 up to about 1.1 µM and inactive = higher.

Legend:
Experiment in all cases: DTP human tumour cell line panel, 48 h
MOLT-4 = test system: MOLT-4
HT-29 = test system: HT-29
A549 = test system: A549
RPMI-8226 = test system: RPMI-8226
HOP-92 = test system: HOP-92
NCI-H23 = test system: NCI-H23
HCC 2998 = test system: HCC 2998
NCI-H460 = test system: NCI-H460
IGROV-1 = test system: IGROV-1
HOP-62 = test system: HOP-62
SNB-75 = test system: SNB-75
OVCAR-3 = test system: OVCAR-3
U-251 = test system: U-251
SK-MEL-2 = test system: SK-MEL-2
A498 = test system: A498
SNB-19 = test system: SNB-19
CAKI-1 = test system: CAKI-1

Structure (SMILES)	GI50 (MOLT-4)	GI50 (HT-29)	GI50 (A549)	GI50 (RPMI-8226)	GI50 (HOP-92)	GI50 (NCI-H23)	GI50 (HCC 2998)	GI50 (NCI-H460)	GI50 (IGROV-1)	GI50 (HOP-62)	GI50 (SNB-75)	GI50 (OVCAR-3)	GI50 (U-251)	GI50 (SK-MEL-2)	GI50 (A498)	GI50 (SNB-19)	GI50 (CAKI-1)
O=C(Nc1cccc([N+](=O)[O-])c1)C(=O)C(C(=O)c1ccccc1-c1ccccc1)C1OC(=O)c2ccccc21 (centres undefined)	13.2 µM (inactive)	38.8 µM (inactive)	26.9 µM (inactive)	13.4 µM (inactive)	13.4 µM (inactive)	14.7 µM (inactive)	16.2 µM (inactive)	25.9 µM (inactive)	30.8 µM (inactive)	16.6 µM (inactive)	22.9 µM (inactive)	15.4 µM (inactive)	13.4 µM (inactive)	17.9 µM (inactive)	23.2 µM (inactive)	–	–
COc1ccc(C(=O)O)c(Br)c1OCc1ccccc1	> 100 µM (inactive)	> 100 µM (inactive)	> 100 µM (inactive)	> 100 µM (inactive)	> 100 µM (inactive)	> 100 µM (inactive)	–	> 100 µM (inactive)	> 100 µM (inactive)	> 100 µM (inactive)	> 100 µM (inactive)	> 100 µM (inactive)	> 100 µM (inactive)	> 100 µM (inactive)	> 100 µM (inactive)	> 100 µM (inactive)	–
CC1=CC(/C=C(\C)CCCc2ccoc2)C2(OC(=O)C(C)=C2O)[C@H]2C1CC[C@@H]2C (some centres undefined)	19.2 µM (inactive)	34.3 µM (inactive)	23.4 µM (inactive)	13.3 µM (inactive)	17.9 µM (inactive)	20.5 µM (inactive)	29.9 µM (inactive)	–	32.3 µM (inactive)	–	33.7 µM (inactive)	21.4 µM (inactive)	25 µM (inactive)	–	15.5 µM (inactive)	11.9 µM (inactive)	32.1 µM (inactive)
CC(=O)Oc1c2c(c(O)c3ccccc13)C(n1cnc3c(ncn3C3OC(CO)C4OC(C)(C)OC43)c1=N)CCC2 (centres undefined)	11.1 µM (inactive)	13.2 µM (inactive)	19.1 µM (inactive)	3.1 µM (inactive)	22.6 µM (inactive)	16.8 µM (inactive)	15 µM (inactive)	23.3 µM (inactive)	20.2 µM (inactive)	16.7 µM (inactive)	17.5 µM (inactive)	14.5 µM (inactive)	18.9 µM (inactive)	15.4 µM (inactive)	17.3 µM (inactive)	16 µM (inactive)	25.4 µM (inactive)
COC(=O)C(C#CCCCCC#CC(NC(=O)OCc1ccccc1)(C(=O)OC)C(F)(F)F)(NC(=O)OCc1ccccc1)C(F)(F)F (centres undefined)	–	> 100 µM (inactive)	73.6 µM (inactive)	4.36 µM (inactive)	> 100 µM (inactive)	> 100 µM (inactive)	> 100 µM (inactive)	> 100 µM (inactive)	> 100 µM (inactive)	> 100 µM (inactive)	> 100 µM (inactive)	> 100 µM (inactive)	> 100 µM (inactive)	–	> 100 µM (inactive)	> 100 µM (inactive)	> 100 µM (inactive)
CCCCCc1cc(OC(=O)c2c(O)cc(OC)cc2CCCCC)cc(O)c1C(=O)O	23.5 µM (inactive)	14.2 µM (inactive)	17.8 µM (inactive)	14.5 µM (inactive)	16.4 µM (inactive)	12.4 µM (inactive)	15.3 µM (inactive)	15.9 µM (inactive)	16.6 µM (inactive)	16.4 µM (inactive)	17.2 µM (inactive)	–	15.2 µM (inactive)	16.8 µM (inactive)	19.8 µM (inactive)	12.7 µM (inactive)	19.1 µM (inactive)
O/N=C(\C(=N/O)Nc1ccc(-c2ccc(NC(=N/O)/C(=N\O)c3ccccc3)cc2)cc1)c1ccccc1	17.3 µM (inactive)	13.6 µM (inactive)	31.5 µM (inactive)	25.9 µM (inactive)	20 µM (inactive)	17.5 µM (inactive)	0.214 µM (active)	17.3 µM (inactive)	25.1 µM (inactive)	11 µM (inactive)	–	17.1 µM (inactive)	25.7 µM (inactive)	20.2 µM (inactive)	24.1 µM (inactive)	19.2 µM (inactive)	22.4 µM (inactive)
O=C(Cc1nc2ccccc2o1)C(=O)Nc1ccccc1C(F)(F)F	–	> 100 µM (inactive)	> 100 µM (inactive)	> 100 µM (inactive)	> 100 µM (inactive)	> 100 µM (inactive)	> 100 µM (inactive)	> 100 µM (inactive)	> 100 µM (inactive)	> 100 µM (inactive)	63.1 µM (inactive)	> 100 µM (inactive)	> 100 µM (inactive)	> 100 µM (inactive)	> 100 µM (inactive)	> 100 µM (inactive)	> 100 µM (inactive)
Cc1ccc2c(c1)C1(C)OC(CC(N)C1O)O2 (centres undefined)	> 100 µM (inactive)	> 100 µM (inactive)	> 100 µM (inactive)	> 100 µM (inactive)	–	> 100 µM (inactive)	–	> 100 µM (inactive)	> 100 µM (inactive)	> 100 µM (inactive)	29.8 µM (inactive)	> 100 µM (inactive)	> 100 µM (inactive)	> 100 µM (inactive)	–	> 100 µM (inactive)	–
FC1OC2OC1C(OCc1ccccc1)C(OCc1ccccc1)C2OCc1ccccc1 (centres undefined)	22.8 µM (inactive)	34.8 µM (inactive)	72.8 µM (inactive)	22.9 µM (inactive)	15.3 µM (inactive)	> 100 µM (inactive)	–	> 100 µM (inactive)	34.6 µM (inactive)	–	34.7 µM (inactive)	36.8 µM (inactive)	88.3 µM (inactive)	71.8 µM (inactive)	> 100 µM (inactive)	84.9 µM (inactive)	35.5 µM (inactive)
CC#C[C@@]1(O)CCCCC1O (some centres undefined)	> 100 µM (inactive)	> 100 µM (inactive)	> 100 µM (inactive)	> 100 µM (inactive)	> 100 µM (inactive)	> 100 µM (inactive)	> 100 µM (inactive)	> 100 µM (inactive)	> 100 µM (inactive)	> 100 µM (inactive)	66.8 µM (inactive)	> 100 µM (inactive)	> 100 µM (inactive)	> 100 µM (inactive)	> 100 µM (inactive)	> 100 µM (inactive)	–
Cc1cccc(C(C)(C)C)c1NC(=O)CC1Sc2ccccc2NC1=O (centres undefined)	43.3 µM (inactive)	43 µM (inactive)	> 100 µM (inactive)	19 µM (inactive)	3.8 µM (inactive)	46.6 µM (inactive)	> 100 µM (inactive)	34 µM (inactive)	> 100 µM (inactive)	> 100 µM (inactive)	> 100 µM (inactive)	55.7 µM (inactive)	25.6 µM (inactive)	–	> 100 µM (inactive)	> 100 µM (inactive)	87.3 µM (inactive)
COC(=O)C(=O)C(CC(=O)Nc1cccc(C(F)(F)F)c1)C(=O)OC (centres undefined)	> 100 µM (inactive)	–	> 100 µM (inactive)	> 100 µM (inactive)	> 100 µM (inactive)	> 100 µM (inactive)	> 100 µM (inactive)	> 100 µM (inactive)	> 100 µM (inactive)	> 100 µM (inactive)	> 100 µM (inactive)	–	> 100 µM (inactive)	> 100 µM (inactive)	> 100 µM (inactive)	> 100 µM (inactive)	> 100 µM (inactive)
